Experimental data taken from patent publication US10266544B2, “Aryl substituted aminomethyl spectinomycin analogs as antibacterial agents” (ST. JUDE CHILDREN'S RESEARCH HOSPITAL, INC., priority 2013, dated 2019).
Structures can show the parent of a compound that is named as a salt. Where two headings read alike, the source gives them in different places.

Legend:
Format in all cases: cell-based
[1] = test system: Neisseria meningitides (ATCC 13077); test: Disc diffusion assay; details: ATCC13077, 4 μg per disc, read-out: Zone of inhibition N.m.
[2] = test system: M. tuberculosis clinical isolates; test: microbe, parasite or virus in culture; details: Mycobacterium tuberculosis
[3] = test system: Legionella pneumophila (ATCC 33153); test: microbe, parasite or virus in culture; details: ATCC33153, 72 h, read-out: Zone of inhibition L.p.
Bacillus anthracis = test: microbe, parasite or virus in culture; details: read-out: MIC B.a.
[4] = test system: MRSA, Staphylococcus aureus (NRS70); test: MIC determination, microbroth dilution; details: Staphylococcus aureus (NRS70); read-out: MIC MRSA
[5] = test system: Streptococcus pyogenes (ATCC 700294); test: MIC determination, microbroth dilution; details: ATCC700294; Streptococcus pyogenes (ATCC 700294); read-out: MIC S. py.
[6] = test system: Staphylococcus aureus (ATCC 29213); test: MIC determination, microbroth dilution; details: ATCC29213; Staphylococcus aureus (ATCC 29213); read-out: MIC S.a.
[7] = test system: Haemophilus influenza (ATCC 49247); test: microbe, parasite or virus in culture; details: ATCC49247; Haemophilus influenza; 4 μg per disc; range of at least two experiments; read-out: Zone of inhibition H.i.
[8] = test system: Proteus mirabilis (ATCC 25933); test: MIC determination, microbroth dilution; details: ATCC25933
[9] = test system: Bacillus anthracis, Sterne 34F2; test: microbe, parasite or virus in culture; details: STERNE34F2, read-out: MIC B.a.
[10] = test system: Proteus vulgaris (ATCC 33420); test: MIC determination, microbroth dilution; details: ATCC33420
[11] = test system: Pseudomonas aeruginosa (PA01); test: MIC determination, microbroth dilution
[12] = test system: Stenotrophomonas maltophilia (ATCC 13637); test: MIC determination, microbroth dilution; details: ATCC13637; Stenotrophomonas maltophilia (ATCC 13637); read-out: MIC S.m.
[13] = test system: Streptococcus pneumoniae (R6); test: MIC determination, microbroth dilution; details: Streptococcus pneumoniae (R6); read-out: MIC S. pn.
[14] = test system: Burkholderia cepacia (ATCC 25416); test: MIC determination, microbroth dilution; details: Burkholderia cepacia
[15] = test system: Escherichia coli (ATCC 700926); test: MIC determination, microbroth dilution; details: ATCC700926; Escherichia coli (ATCC 700926); read-out: MIC E.c.
Protocol: MICs were determined using the microbroth dilution method according to Clinical Laboratory Standards Institute (CLSI; National, C. F. C. L. S., Methods for Dilution Antimicrobial Susceptibility Tests for Bacteria Grow aerobically-Seventh Edition: Approved Standard M7-A7, CLSI, Wayne, Pa., USA, 2008) and were read by visual inspection. Two fold serial dilutions of antibiotic in 100 μL of the appropriate broth media were first prepared in 96-well round bottom microtiter plates (Nalge Nunc International, Rochester, N.Y., USA). An equivalent volume (100 μL) of bacterial broth inocula containing approximately 10^5 bacterial cfu/mL was added to each well to give final concentrations of drug starting at 200 μg/mL and the plates were incubated aerobically at 37° C. M. tuberculosis microtiter plates were incubated for 7 days and all other strains were incubated overnight. After incubations, in all cases the MIC was recorded as the lowest concentration of drug that prevented bacterial growth.

[16] = test system: Klebsiella pneumoniae (ATCC 33495); test: MIC determination, microbroth dilution; details: ATCC33495
[17] = test system: Bacillus subtilis (ATCC 23857); test: MIC determination, microbroth dilution; details: ATCC23857; Bacillus subtilis (ATCC 23857); read-out: MIC B.s.
E. coli K12 ΔtolC = test: microbe, parasite or virus in culture; details: Escherichia coli, read-out: MIC E.c. Δtolc
[18] = test system: Neisseria gonorrhoeae (ATCC 49226); test: Disc diffusion assay; details: ATCC49226, 4 μg per disc, read-out: Zone of inhibition N.g.
[19] = test system: acinetobacter baumannii (ATCC 19606); test: MIC determination, microbroth dilution; details: ATCC19606
[20] = test system: Enterococcus faecalis (ATCC 33186); test: MIC determination, microbroth dilution; details: ATCC33186; Enterococcus faecalis (ATCC 33186); read-out: MIC E.f.
Moraxella catarrhalis = test: MIC determination (Table 6)
Listeria monocytogenes = test: MIC determination (Table 6)
[21] = ATCC25416, read-out: MIC B.c., Burkholderia cepacia (ATCC 25416)
[22] = ATCC25416, read-out: MIC B.c., Burkholderia cepacia, Table 6

Compound | MIC ([2]; H37RV, read-out: MIC H37Rv) [µg/mL] | MIC (Bacillus anthracis) [µg/mL] | MIC [4] [µg/mL] | MIC [5] [µg/mL] | MIC [6] [µg/mL] | MIC [8] [µg/mL] | MIC [9] [µg/mL] | MIC [10] [µg/mL] | MIC [11] [µg/mL] | MIC [13] [µg/mL] | MIC [14, 21] [µg/mL] | MIC [14, 22] [µg/mL] | MIC [15] [µg/mL] | MIC [16] [µg/mL] | MIC [17] [µg/mL] | MIC (E. coli K12 ΔtolC) [µg/mL] | MIC [19] [µg/mL] | MIC ([2]; read-out: MIC TN022) [µg/mL] | MIC (Moraxella catarrhalis) [µg/mL] | MIC (Listeria monocytogenes) [µg/mL] | further results
CN[C@@H]1[C@H](O)[C@H](NC)[C@H]2O[C@]3(O)[C@H](O[C@@H]2[C@H]1O)O[C@H](C)C[C@]3(O)CNCCc1ccccc1 [compound 27, 3′-(S)-3′-(phenethylaminomethyl)dihydrospectinomycin Trihydrochloride] | 200 | > 200 | > 200 | 50 to 100 | > 200 | > 200 | > 200 | > 200 | > 200 | > 200 | 200 | > 200 | 50 to 100 | > 200 | > 200 | 25 to 50 | ≥ 200 |  |  |  | zone of inhibition at 4 µg/disc [1]: 0 mm; zone of inhibition at 4 µg/disc [3]: 0 mm; zone of inhibition at 4 µg/disc [7]: 0 mm; MIC [12]: ≥ 200 µg/mL; zone of inhibition at 4 µg/disc [18]: 7 mm; MIC [20]: > 200 µg/mL
CN[C@@H]1[C@H](O)[C@H](NC)[C@H]2O[C@]3(O)[C@H](O[C@@H]2[C@H]1O)O[C@H](C)C[C@@]3(O)CNCCc1ccc(C(F)(F)F)cc1 [compound 58, 3′-(R)-3′[(4-trifluoromethyl)phenethylaminomethyl]dihydrospectinomycin Trihydrochloride] | 3.1 | 12.5 to 25 | 50 to 100 | 1.6 to 3.1 | 12.5 | 200 | 12.5 to 25 | 200 | > 200 | 1.6 to 3.1 | > 200 | > 200 | 6.3 to 12.5 | > 200 | 6.3 | 1.6 | > 200 | 3.1 | 0.4 | 3.1 | zone of inhibition at 4 µg/disc [1]: 16 mm; MIC ([2]; read-out: MIC TN026): 6.3 µg/mL; zone of inhibition at 4 µg/disc [3]: 26 mm; zone of inhibition at 4 µg/disc [7]: 19 mm; zone of inhibition at 4 µg/disc [18]: 19 mm
CN[C@@H]1[C@H](O)[C@H](NC)[C@H]2O[C@]3(O)[C@H](O[C@@H]2[C@H]1O)O[C@H](C)C[C@@]3(O)CNCCc1ccncc1 [compound 63, 3′-(R)-3′-[((2-(pyridin-4-yl)ethyl)aminomethyl]dihydrospectinomycintetrahydrobromide] | 25 | > 200 | > 200 |  | > 200 |  | > 200 |  |  |  | > 200 | > 200 |  | > 200 |  |  | > 200 | 25 | 12.5 | 100 | MIC ([2]; read-out: MIC TN026): 25 µg/mL
CN[C@@H]1[C@H](O)[C@H](NC)[C@H]2O[C@]3(O)[C@H](O[C@@H]2[C@H]1O)O[C@H](C)C[C@@]3(O)CNCc1ccccc1Cl [compound 56, 3′-(R)-3′-[(2-chloro)benzylaminomethyl]dihydrospectinomycin Trihydrobromide] | > 200 | > 200 | > 200 | 50 | > 200 | > 200 | > 200 | > 200 | > 200 | 100 | > 200 | > 200 | > 200 | > 200 | > 200 | > 200 | > 200 |  | 100 | > 200 | zone of inhibition at 4 µg/disc [1]: 0 mm; zone of inhibition at 4 µg/disc [3]: 0 mm; zone of inhibition at 4 µg/disc [7]: 0 mm; MIC [12]: > 200 µg/mL; zone of inhibition at 4 µg/disc [18]: 0 mm
CN[C@@H]1[C@H](O)[C@H](NC)[C@H]2O[C@]3(O)[C@H](O[C@@H]2[C@H]1O)O[C@H](C)C[C@@]3(O)CNCCN1CCOCC1 [compound 51, 3′-(R)-3′-[(2-morpholinoethyl)aminomethyl]dihydrospectinomycin tetrahydrochloride] | 25 | 100 to 200 | > 200 | 100 | 100 to 200 | 50 to 100 | 100 to 200 | ≥ 200 | ≥ 200 | 100 | > 200 | > 200 | 50 | 100 to 200 | 50 to 100 | 25 to 50 | > 200 | 50 | 3.1 | 25 | zone of inhibition at 4 µg/disc [1]: 6 mm; MIC ([2]; read-out: MIC TN026): 100 µg/mL; zone of inhibition at 4 µg/disc [3]: 22 mm; zone of inhibition at 4 µg/disc [7]: 6 mm; MIC [12]: 50 µg/mL; zone of inhibition at 4 µg/disc [18]: 0 mm
CN[C@@H]1[C@H](O)[C@H](NC)[C@H]2O[C@]3(O)[C@H](O[C@@H]2[C@H]1O)O[C@H](C)C[C@@]3(O)CNCCc1cnccn1 [compound 60, 3′-(R)-3′-[((2-(pyrazin-2-yl)ethyl)aminomethyl]dihydrospectinomycintetrahydrobromide] | 3.1 | 100 | > 200 | 50 | 200 | > 200 | 100 | > 200 | > 200 | 25 | > 200 | > 200 | 100 | 100 to 200 | 50 to 100 | 50 | > 200 | 6.3 | 6.3 | 25 | MIC ([2]; read-out: MIC TN026): 6.3 µg/mL; MIC [12]: 25 µg/mL
CN[C@@H]1[C@H](O)[C@H](NC)[C@H]2O[C@]3(O)[C@H](O[C@@H]2[C@H]1O)O[C@H](C)C[C@@]3(O)CNCCc1cccnc1 [compound 59, 3′-(R)-3′-[((2-(pyridin-3-yl)ethyl)aminomethyl]dihydrospectinomycintetrahydrobromide] | 6.3 | 50 | > 200 |  | 100 |  | 50 |  |  |  | > 200 | > 200 |  | 100 | 12.5 to 25 |  | > 200 | 6.3 | 3.1 | 12.5 | MIC ([2]; read-out: MIC TN026): 6.3 µg/mL
